In brackets after ≈: the same amount, converted by molar mass.
What was measured:
Escherichia coli = test: Antibacterial activity against Escherichia coli.; assay type: functional
Staphylococcus capitis = test: Antibacterial activity against Staphylococcus capitis.; assay type: functional
Peptide deformylase = biological target: T1, Peptide deformylase (Escherichia coli, UniProt Q9JN24); test: Inhibition concentration against Escherichia coli peptide deformylase.
T1 sequence (Q9JN24 whole entry): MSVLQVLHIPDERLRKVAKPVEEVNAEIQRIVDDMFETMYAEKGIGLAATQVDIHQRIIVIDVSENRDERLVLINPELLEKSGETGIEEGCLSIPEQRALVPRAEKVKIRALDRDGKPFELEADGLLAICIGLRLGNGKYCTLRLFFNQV

[1] = Escherichia coli, read-out: MIC
[2] = Staphylococcus capitis, read-out: MIC

Row | SMILES | MIC (Escherichia coli; [1]) [µM] | MIC (Staphylococcus capitis; [2]) [µM] | IC50 (Peptide deformylase) [nM] | MIC (Escherichia coli) [µM] | MIC (Staphylococcus capitis) [µM]
1 | CCCC[C@H](CN(O)C=O)C(=O)N1Cc2ccccc2C[C@H]1C(=O)N(C)C | > 200 | > 200 |  |  | 
2 | CCCC[C@H](CN(O)C=O)C(=O)N[C@@H](CO)C(=O)N(C)C | 100 (≈ 30.3 µg/mL) | 50 (≈ 15.2 µg/mL) |  |  | 
3 | CCCC[C@H](CN(O)C=O)C(=O)N[C@H](C(=O)O)C(C)(C)C | > 200 | > 200 | 80 |  | 
4 | CCCC[C@H](CN(O)C=O)C(=O)N[C@@H](Cc1ccc(O)cc1)C(=O)N(C)C | > 200 | > 200 | 300 |  | 
5 | CCCC[C@H](CN(O)C=O)C(=O)N[C@@H](C)C(=O)N(C)C | 25 (≈ 7.18 µg/mL) | 100 (≈ 28.7 µg/mL) | 40 |  | 
6 | CCCC[C@H](CN(O)C=O)C(=O)N[C@@H](CSCc1ccccc1)C(=O)N(C)C | 200 (≈ 81.9 µg/mL) | 12.5 (≈ 5.12 µg/mL) | 70 |  | 
7 | CCCC[C@H](CN(O)C=O)C(=O)N[C@H](C(=O)N1CCC(Cc2ccccc2)CC1)C(C)(C)C | 200 (≈ 91.9 µg/mL) | 6.25 (≈ 2.87 µg/mL) | 20 |  | 
8 | CCCC[C@H](CN(O)C=O)C(=O)NCC(=O)N(C)C | 50 (≈ 13.7 µg/mL) | > 200 |  |  | 
9 | CCCC[C@H](CN(O)C=O)C(=O)N[C@H](C(=O)N1CCC(C(=O)OCC)CC1)C(C)(C)C | > 200 | 25 (≈ 11 µg/mL) | 10 |  | 
10 | CCCC[C@H](CN(O)C=O)C(=O)N[C@H](C(=O)N(C)C)C(C)(C)SC | 25 (≈ 9.04 µg/mL) | 25 (≈ 9.04 µg/mL) |  |  | 
11 | CCCC[C@H](CN(O)C=O)C(=O)N[C@H](C(=O)N1CCCc2ccccc21)C(C)(C)C | 50 (≈ 20.9 µg/mL) | 50 (≈ 20.9 µg/mL) | 9 |  | 
12 | CCCC[C@H](CN(O)C=O)C(=O)N[C@H](C(=O)N1CCCC1)C(C)(C)C | 25 (≈ 8.89 µg/mL) | 25 (≈ 8.89 µg/mL) |  |  | 
13 | CCCC[C@H](CN(O)C=O)C(=O)N1CCC[C@H]1C(=O)N(C)C | > 200 | 50 (≈ 15.7 µg/mL) | 400 |  | 
14 | CCCC[C@H](CN(O)C=O)C(=O)N[C@@H](CC(C)C)C(=O)N(C)C | 50 (≈ 16.5 µg/mL) | 50 (≈ 16.5 µg/mL) | 20 |  | 
15 | CCCC[C@H](CN(O)C=O)C(=O)N[C@@H](CCCCN)C(=O)N(C)C | > 200 | > 200 | 200 |  | 
16 | CCCC[C@H](CN(O)C=O)C(=O)N[C@@H](CCC(=O)OCc1ccccc1)C(=O)N(C)C | > 200 | 200 (≈ 87.1 µg/mL) | 20 |  | 
17 | CCCC[C@H](CN(O)C=O)C(=O)N[C@H](C(C)=O)C(C)(C)C | 25 (≈ 7.51 µg/mL) | 100 (≈ 30 µg/mL) | 20 |  | 
18 | CCCC[C@H](CN(O)C=O)C(=O)N[C@@H](CC1CCCCC1)C(=O)N(C)C | 100 (≈ 37 µg/mL) | 100 (≈ 37 µg/mL) | 30 |  | 
19 | CCCC[C@H](CN(O)C=O)C(=O)N[C@H](C(=O)N(C)C)C(C)C | 25 (≈ 7.89 µg/mL) | 25 (≈ 7.89 µg/mL) | 20 |  | 

Row | SMILES | MIC (Escherichia coli; [1]) [µM] | MIC (Staphylococcus capitis; [2]) [µM] | IC50 (Peptide deformylase) [nM] | MIC (Escherichia coli) [µM] | MIC (Staphylococcus capitis) [µM]
20 | CCCC[C@H](CN(O)C=O)C(=O)N[C@H](C(=O)N1CCCC2CCCCC21)C(C)(C)C (some centres undefined) | > 200 | 50 (≈ 21.2 µg/mL) |  |  | 
21 | CCCC[C@H](CN(O)C=O)C(=O)N[C@H](C(=O)N(C)C)C(C)(C)O | 12.5 (≈ 4.14 µg/mL) | 25 (≈ 8.29 µg/mL) |  |  | 
22 | CCCC[C@H](CN(O)C=O)C(=O)N[C@H](C(=O)OC)C(C)(C)C | 50 (≈ 15.8 µg/mL) | 200 (≈ 63.3 µg/mL) | 30 |  | 
23 | CCCC[C@H](CN(O)C=O)C(=O)N[C@H](C(=O)N1CCN(C)CC1)C(C)(C)C | 25 (≈ 9.61 µg/mL) | 50 (≈ 19.2 µg/mL) | 50 |  | 
24 | CCCC[C@H](CN(O)C=O)C(=O)N[C@H](C(=O)N(C)C)C(C)CC (some centres undefined) | 25 (≈ 8.24 µg/mL) | 12.5 (≈ 4.12 µg/mL) | 20 |  | 
25 | CCCC[C@H](CN(O)C=O)C(=O)N[C@H](C(=O)N1CCC(C)CC1)C(C)(C)C | 100 (≈ 38.4 µg/mL) | 50 (≈ 19.2 µg/mL) | 10 |  | 
26 | CCCC[C@H](CN(O)C=O)C(=O)N[C@H](C(=O)N1CCOCC1)C(C)(C)C | 25 (≈ 9.29 µg/mL) | 25 (≈ 9.29 µg/mL) | 20 |  | 
27 | CCCC[C@H](CN(O)C=O)C(=O)N[C@@H](CCCCN(C)C)C(=O)N(C)C | > 200 | > 200 | 300 |  | 
28 | CCCC[C@H](CN(O)C=O)C(=O)N[C@@H](CCCNC(=N)N)C(=O)N(C)C | > 200 | 50 (≈ 18.6 µg/mL) | 20 |  | 
29 | CCCC[C@H](CN(O)C=O)C(=O)N[C@@H](Cc1ccccc1)C(=O)N(C)C | 100 (≈ 36.3 µg/mL) | 50 (≈ 18.2 µg/mL) |  |  | 
30 | CCCC[C@H](CN(O)C=O)C(=O)N[C@H](C(=O)N(C)C)C(C)(C)OC | 25 (≈ 8.64 µg/mL) | 100 (≈ 34.5 µg/mL) |  |  | 
31 | CCCC[C@H](CN(O)C=O)C(=O)N[C@H](C(=O)N(CCc1ccccc1)Cc1ccccc1)C(C)(C)C | > 200 | 100 (≈ 49.6 µg/mL) | 90 |  | 
32 | CCCC[C@H](CN(O)C=O)C(=O)N[C@H](C(=O)N(C)C1CCCCC1)C(C)(C)C | > 200 | 100 (≈ 39.8 µg/mL) |  |  | 
33 | CCCC[C@H](CN(O)C=O)C(=O)N[C@H](C(=O)N1CCC(C(C)=O)CC1)C(C)(C)C | 100 (≈ 41.2 µg/mL) | 25 (≈ 10.3 µg/mL) | 10 |  | 
34 | CCCC[C@H](CN(O)C=O)C(=O)N[C@@H](Cc1ccc(Cl)cc1)C(=O)N(C)C | > 200 | 100 (≈ 39.8 µg/mL) | 50 |  | 
35 | CCCC[C@H](CN(O)C=O)C(=O)N[C@@H](CC(=O)OCc1ccccc1)C(=O)N(C)C | > 200 | 25 (≈ 10.5 µg/mL) | 100 |  | 
36 | CCCC[C@H](CN(O)C=O)C(=O)N[C@H](C(=O)N(C)C)C(C)(C)C (stereo in doubt; form 1) |  |  | 7 |  | 
37 | CCCC[C@H](CN(O)C=O)C(=O)N[C@H](C(=O)N(C)C)C(C)(C)C (stereo in doubt; form 2) |  |  | 40 | 100 (≈ 32.9 µg/mL) | >200

From ChEMBL document CHEMBL1145728, “Structure--activity relationships of the peptide deformylase inhibitor BB-3497: modification of the P2' and P3' side chains” (Bioorg Med Chem Lett, 2003)
